In patent US9394289B2, “Inhibitors of c-fms kinase” (Janssen Pharmaceutica NV, priority 2006, dated 2016):
Where two headings read alike, the source gives them in different places.

Tests used:
c-fms = c-fms (Homo sapiens (Human), UniProt P07333); test: Autophosphorylation fluorescence polarization competition immunoassay for c-fms inhibition; type: biochemical; settings: averages of three independent measurements; table head says 1 nM c-fms, method says 10 nM c-fms, 1 mM ATP; read-out: 1 nM c-fms; peptide Pi assay IC-50
Experimental: Fluorescence Polarization Competition Immunoassay
The assay buffer used was 100 mM 4-(2-hydroxyethyl)piperazine 1-ethanesulfonic acid (HEPES), pH 7.5, 1 mM 1,4-dithio-DL-threitol (DTT), 0.01% (v/v) Tween-20. Compounds were diluted in assay buffer containing 4% dimethylsulfoxide (DMSO) just prior to the assay. To each well, 5 μL of compound were added followed by the addition of 3 μL of a mix containing 33 nM c-fms (Johnson & Johnson PRD) and 16.7 mM MgCl2 (Sigma) in assay buffer. The kinase reaction was initiated by adding 2 μL of 5 mM ATP (Sigma) in assay buffer. […] Control reactions were ran in each plate: in positive and negative control wells, assay buffer (made 4% in DMSO) was substituted for the compound; in addition, positive control wells received 1.2 μL of 50 mM ethylenediaminetetraaceticacid (EDTA).
The plates were incubated at room temperature for 45 min. At the end of the incubation, the reaction was quenched with 1.2 μL of 50 mM EDTA (EDTA was not added to the positive control wells at this point; see above). Following a 5-min incubation, each well received 10 μL of a 1:1:3 mixture of anti-phosphotyrosine antibody, 10×, PTK green tracer, 10× (vortexed), FP dilution buffer, respectively (all from PanVera, cat. #P2837). The plate was covered, incubated for 30 min at room temperature and the fluorescence polarization was read on the Analyst. The instrument settings were: 485 nm excitation filter; 530 nm emission filter; Z height: middle of well; G factor: 0.93. […] The reported IC50 values are averages of three independent measurements.

[1] = system: mouse bone-marrow derived macrophages (BMDM); test: CSF-1-driven mouse bone-marrow derived macrophages proliferation assay (BrDU incorporation); type: cell-based; settings: 30 hrs culture, read-out: mCSF driven proliferation BMDM (Mouse) IC-50
Experimental: CSF-1-Driven Mouse Bone-Marrow Derived Macrophages Assay
Macrophages are derived by culturing mouse bone marrow in alpha-MEM supplemented with 10% FCS and 50 ng/ml recombinant mouse CSF-1 in bacteriologic dishes. On the sixth day, macrophages are detached from dishes, washed, and resuspended to 0.05 million cells/ml in alpha-MEM containing 10% FCS. One hundred ul of cell suspension are distributed per well into 96 well culture plates. Wells are further supplemented with the addition of 50 ul media containing 15 ng/ml CSF-1, 3 uM Indomethacin, and 3× of a dilution series of test compounds. The cells are cultured for 30 hrs at 37 degrees and 5% CO2. During the final six hours, cultures are supplemented with an additional 30 ul of media containing a 1:500 dilution of bromodeoxyuridine (BrDU). At the end of the culture period, the plates are spun at 1000 RPM for 1 minute and 130 ul of media is removed with a pipet and replaced with 150 ul of fixative solution for 1 hour @ room temperature. The fixative is then dispelled from the plates and the plates allowed to air dry. Incorporation of BrDU into the fixed, dried cells is quantified using a specific ELISA.

Sequence of c-fms (P07333 20-972): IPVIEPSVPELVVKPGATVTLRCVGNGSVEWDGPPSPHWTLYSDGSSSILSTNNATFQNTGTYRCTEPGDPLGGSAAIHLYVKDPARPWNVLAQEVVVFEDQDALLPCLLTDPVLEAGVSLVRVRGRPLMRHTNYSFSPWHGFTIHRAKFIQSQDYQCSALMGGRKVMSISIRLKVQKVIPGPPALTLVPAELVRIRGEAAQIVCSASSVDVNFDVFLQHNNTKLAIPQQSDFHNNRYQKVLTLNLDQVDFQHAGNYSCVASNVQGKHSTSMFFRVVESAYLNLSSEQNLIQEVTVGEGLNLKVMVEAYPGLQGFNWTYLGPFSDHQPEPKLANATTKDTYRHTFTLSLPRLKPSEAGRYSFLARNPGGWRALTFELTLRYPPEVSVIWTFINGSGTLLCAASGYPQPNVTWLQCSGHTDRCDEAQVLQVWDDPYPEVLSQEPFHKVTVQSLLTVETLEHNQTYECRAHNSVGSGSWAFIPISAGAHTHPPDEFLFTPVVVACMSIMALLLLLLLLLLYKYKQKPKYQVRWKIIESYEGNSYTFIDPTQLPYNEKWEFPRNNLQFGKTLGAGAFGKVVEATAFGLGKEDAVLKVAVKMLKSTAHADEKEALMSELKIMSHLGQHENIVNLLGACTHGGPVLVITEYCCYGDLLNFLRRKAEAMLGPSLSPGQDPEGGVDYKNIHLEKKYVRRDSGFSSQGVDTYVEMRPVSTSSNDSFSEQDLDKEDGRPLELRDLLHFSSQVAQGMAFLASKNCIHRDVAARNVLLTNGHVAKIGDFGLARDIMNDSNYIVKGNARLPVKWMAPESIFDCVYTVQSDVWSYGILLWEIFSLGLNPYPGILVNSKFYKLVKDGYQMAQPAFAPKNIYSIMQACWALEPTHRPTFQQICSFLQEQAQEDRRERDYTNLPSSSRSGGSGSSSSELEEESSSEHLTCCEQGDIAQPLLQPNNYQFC

| IC50 (c-fms) | Structure (SMILES) | IC50 ([1]; Mus musculus, BMDM) | IC50 [1] |
| --- | --- | --- | --- |
| 1.6 nM | N#Cc1c[nH]c(C(=O)Nc2ccc(C3(CN4CCOCC4)CCOCC3)cc2C2=CCCCC2)n1 [Example 21, 4-Cyano-1H-imidazole-2-carboxylic acid [2-cyclohex-1-enyl-4-(4-morpholin-4-ylmethyl-tetrahydro-pyran-4-yl)-phenyl]-amide] | 7.9 nM | – |
| 0.8 nM | CC1(C)CC=C(c2cc(C3(c4nn[nH]n4)CCOCC3)ccc2NC(=O)c2nc(C#N)c[nH]2)CC1 [Example 22, 4-Cyano-1H-imidazole-2-carboxylic acid {2-(4,4-dimethyl-cyclohex-1-enyl)-4-[4-(2H-tetrazol-5-yl)-tetrahydro-pyran-4-yl]-phenyl}-amide] | > 300 nM | – |
| 6.4 nM | CC1(C)CC=C(c2cc(C3(C(=O)O)CCOCC3)ccc2NC(=O)c2cc(C#N)c[nH]2)CC1 [Example 23, 4-[4-[(4-Cyano-1H-pyrrole-2-carbonyl)-amino]-3-(4,4-dimethyl-cyclohex-1-enyl)-phenyl]-tetrahydro-pyran-4-carboxylic acid] | > 300 nM | – |
| 0.8 nM | CC1(C)CC=C(c2cc(C3(C(N)=O)CCOCC3)ccc2NC(=O)c2nc(C#N)c[nH]2)CC1 [Example 24, 4-Cyano-1H-imidazole-2-carboxylic acid [4-(4-carbamoyl-tetrahydro-pyran-4-yl)-2-(4,4-dimethyl-cyclohex-1-enyl)-phenyl]-amide] | 14 nM | – |
| 0.49 nM | CC1(C)CC=C(c2cc(C3(CO)CCOCC3)ccc2NC(=O)c2nc(C#N)c[nH]2)CC1 [Example 25, 4-Cyano-1H-imidazole-2-carboxylic acid [2-(4,4-dimethyl-cyclohex-1-enyl)-4-(4-hydroxymethyl-tetrahydro-pyran-4-yl)-phenyl]-amide] | 6.5 nM | – |
| 3 nM | CC1(C)CC=C(c2cc(C3(CN4CCOCC4)CCOCC3)ccc2NC(=O)c2nc(C#N)c[nH]2)CC1 [Example 26, 4-Cyano-1H-imidazole-2-carboxylic acid [2-(4,4-dimethyl-cyclohex-1-enyl)-4-(4-morpholin-4-ylmethyl-tetrahydro-pyran-4-yl)-phenyl]-amide] | 5.3 nM | – |
| 2.9 nM | N#Cc1c[nH]c(C(=O)Nc2ccc(C3(O)CCOCC3)cc2C2=CCCCC2)n1 [Example 27, 4-Cyano-1H-imidazole-2-carboxylic acid [2-cyclohex-1-enyl-4-(4-hydroxy-tetrahydro-pyran-4-yl)-phenyl]-amide] | 4.5 nM | – |
| 8.4 nM | CN(C)C(=O)C1(c2ccc(NC(=O)c3nc(C#N)c[nH]3)c(C3=CCCCC3)c2)CCOCC1 [Example 28, 4-Cyano-1H-imidazole-2-carboxylic acid [2-cyclohex-1-enyl-4-(4dimethylcarbamoyl-tetrahydro-pyran-4-yl)-phenyl]-amide] | 28 nM | – |
| 1.6 nM | CN(C)C(=O)C1(c2ccc(NC(=O)c3nc(C#N)c[nH]3)c(C3=CCC(C)(C)CC3)c2)CCOCC1 [Example 29, 4-Cyano-1H-imidazole-2-carboxylic acid [4-(4-dimethylcarbamoyl-tetrahydro-pyran-4-yl)-2-(4,4-dimethyl-cyclohex-1-enyl)-phenyl]-amide] | 11 nM | – |
| 3.2 nM | C[C@@H]1CC(O)(c2ccc(NC(=O)c3nc(C#N)c[nH]3)c(C3=CCC(C)(C)CC3)c2)C[C@H](C)O1 (stereo partly drawn) [Example 30, 4-Cyano-1H-imidazole-2-carboxylic acid [2-(4,4-dimethyl-cyclohex-1-enyl)-4-(cis-4-hydroxy-cis-2,6-dimethyl-tetrahydro-pyran-4-yl)-phenyl]-amide] | – | 7 nM |
| 1.4 nM | C[C@@H]1CC(O)(c2ccc(NC(=O)c3nc(C#N)c[nH]3)c(C3=CCC(C)(C)CC3)c2)C[C@H](C)O1 (stereo partly drawn) [Example 31, 4-cyano-1H-imidazole-2-carboxylic acid [2-(4,4-dimethyl-cyclohex-1-enyl)-4-(trans-4-hydroxy-cis-2,6-dimethyl-tetrahydro-pyran-4-yl)-phenyl]-amide] | – | 3 nM |
| 3.2 nM | C[C@@H]1CC(O)(c2ccc(NC(=O)c3nc(C#N)c[nH]3)c(C3=CCC(C)(C)CC3)n2)C[C@H](C)O1 (stereo partly drawn) [Example 32, 4-Cyano-1H-imidazole-2-carboxylic acid [2-(4,4-dimethyl-cyclohex-1-enyl)-6-(4-hydroxy-Cis-2,6-dimethyl-tetrahydro-pyran-4-yl)-pyridin-3-yl]-amide] | 19 nM | – |
| 3.7 nM | CC1(C)CC=C(c2nc(C3(O)CCOCC3)ccc2NC(=O)c2nc(C#N)c[nH]2)CC1 [Example 33, 4-Cyano-1H-imidazole-2-carboxylic acid [2-(4,4-dimethyl-cyclohex-1-enyl)-6-(4-hydroxy-tetrahydro-pyran-4-yl)-pyridin-3-yl]-amide] | 33 nM | – |
| 1.5 nM | CS(=O)(=O)C1(c2ccc(NC(=O)c3ncc(C#N)[nH]3)c(C3=CCCCC3)c2)CCOCC1 [Example 34, 5-Cyano-1H-imidazole-2-carboxylic acid [2-cyclohex-1-enyl-4-(4-methanesulfonyl-tetrahydro-pyran-4-yl)-phenyl]-amide] | 17.2 nM | – |
| 0.7 nM | CC(=O)N1CCC(O)(c2ccc(NC(=O)c3nc(C#N)c[nH]3)c(C3=CCC(C)(C)CC3)c2)CC1 [Example 35, 4-Cyano-1H-imidazole-2-carboxylic acid [4-(1-acetyl-4-hydroxy-piperidin-4-yl)-2-(4,4-dimethyl-cyclohex-1-enyl)-phenyl]-amide] | 5.8 nM | – |
| 1.1 nM | CC1(C)CC=C(c2cc(C3(C#N)CCS(=O)(=O)CC3)ccc2NC(=O)c2nc(C#N)c[nH]2)CC1 [Example 87, 4-Cyano-1H-imidazole-2-carboxylic acid [4-(4-cyano-1,1-dioxo-hexahydro-1λ^6-thiopyran-4-yl)-2-(4,4-dimethyl-cyclohex-1-enyl)-phenyl]-amide] | 8.2 nM | – |
| 2.4 nM | CC1(C)CC=C(c2cc(C3(O)CC(C)(C)OC(C)(C)C3)ccc2NC(=O)c2nc(C#N)c[nH]2)CC1 [Example 88, 4-Cyano-1H-imidazole-2-carboxylic acid [2-(4,4-dimethyl-cyclohex-1-enyl)-4-(4-hydroxy-2,2,6,6-tetramethyl-tetrahydro-pyran-4-yl)-phenyl]-amide] | 6.4 nM | – |
| 13 nM | CON1C(C)(C)CC(O)(c2ccc(NC(=O)c3nc(C#N)c[nH]3)c(C3=CCC(C)(C)CC3)c2)CC1(C)C [Example 89, 4-Cyano-1H-imidazole-2-carboxylic acid [2-(4,4-dimethyl-cyclohex-1-enyl)-4-(4-hydroxy-1-methoxy-2,2,6,6-tetramethyl-piperidin-4-yl)-phenyl]-amide] | 20 nM | – |
| 2.2 nM | CC1(C)CC=C(c2cc(C3(O)CC4CCC(C3)O4)ccc2NC(=O)c2nc(C#N)c[nH]2)CC1 (centres unmarked) [Example 92, 4-Cyano-1H-imidazole-2-carboxylic acid [2-(4,4-dimethyl-cyclohex-1-enyl)-4-(3-hydroxy-8-oxa-bicyclo[3.2.1]oct-3-yl)-phenyl]-amide] | 12 nM | – |
| 2.9 nM | CC1(C)CC=C(c2cc(C3(O)CC4(C)CCC(C)(C3)O4)ccc2NC(=O)c2nc(C#N)c[nH]2)CC1 (centres unmarked) [Example 93, 4-Cyano-1H-imidazole-2-carboxylic acid [2-(4,4-dimethyl-cyclohex-1-enyl)-4-(3-hydroxy-1,5-dimethyl-8-oxa-bicyclo[3.2.1]oct-3-yl)-phenyl]-amide] | 8.9 nM | – |

| Structure (SMILES) | IC50 (c-fms) | IC50 ([1]; Mus musculus, BMDM) | IC50 [1] |
| --- | --- | --- | --- |
| CC1(C)CC=C(c2cc(C3(O)CCN(CC(F)(F)F)CC3)ccc2NC(=O)c2nc(C#N)c[nH]2)CC1 [Example 90, 4-Cyano-1H-imidazole-2-carboxylic acid {2-(4,4-dimethyl-cyclohex-1-enyl)-4-[4-hydroxy-1-(2,2,2-trifluoro-ethyl)-piperidin-4-yl]-phenyl}-amide] | 6.5 nM | 40 nM | – |
| CC1(C)CC=C(c2cc(C3(O)CC(C)(C)N(CC(F)(F)F)C(C)(C)C3)ccc2NC(=O)c2nc(C#N)c[nH]2)CC1 [Example 91, 4-Cyano-1H-imidazole-2-carboxylic acid {2-(4,4-dimethyl-cyclohex-1-enyl)-4-[4-hydroxy-2,2,6,6-tetramethyl-1-(2,2,2-trifluoro-ethyl)-piperidin-4-yl]-phenyl}-amide] | ~210 nM | 61 nM | – |
